In patent US20040043959A1, “Combination therapies for treating methylthioadenosine phosphorylase deficient cells” (priority 2002, published 2004):

Target: T1, Human MTAP (Homo sapiens, UniProt Q13126)
T1 construct: six-histidine tag (His6) (N); made in house; host or cells: E. coli BL21 DE3
T1 sequence (Q13126 1-283): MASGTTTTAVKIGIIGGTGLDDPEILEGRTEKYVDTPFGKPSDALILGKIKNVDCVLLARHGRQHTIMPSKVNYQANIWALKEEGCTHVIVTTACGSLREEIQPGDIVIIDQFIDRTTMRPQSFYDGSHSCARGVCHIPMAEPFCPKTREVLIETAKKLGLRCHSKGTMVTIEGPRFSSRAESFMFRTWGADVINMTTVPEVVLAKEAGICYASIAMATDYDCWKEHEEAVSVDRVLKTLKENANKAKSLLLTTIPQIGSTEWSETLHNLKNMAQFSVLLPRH
Test: MTAP substrate assay, coupled spectrophotometric (adenine, xanthine oxidase)
Type: biochemical
Conditions: 2 nM MTAP; for activity at 50 µM: 10 min, compound 50 uM, relative to MTA at 50 uM, read-out: MT-A—50: initial velocity as a percentage of the initial velocity with MTA as substrate; for MT-A—10: initial velocity as a percentage of the initial velocity with MTA as substrate: compound 10 uM, relative to MTA at 10 uM
How it was run: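 Detection was xanthine oxidase-coupled (0.8 units/ml), reading adenine-derived absorbance at 305 nm over 10 min in potassium phosphate/DTT buffer at 37° C, with N-His6 enzyme purified from E. coli.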

activity at 50 µM | MT-A—10: initial velocity as a percentage of the initial velocity with MTA as substrate | Compound
15% | 12% | CSc1ccc(SC[C@H]2O[C@@H](n3cnc4c(N)ncnc43)[C@H](O)[C@@H]2O)cc1 [2(G)(115), (2R, 3R, 4S, 5S)-2-(6-amino-9H-purin-9-yl)-5-({[4-(methylthio)phenyl]-thio}methyl)tetrahydro-furan-3,4-diol]
7% | 3% | Nc1ncnc2c1ncn2[C@@H]1O[C@H](CSc2ccccc2OC(F)(F)F)[C@@H](O)[C@H]1O [2(G)(116), (2R, 3R, 4S, 5S)-2-(6-amino-9H-purin-9-yl)-5-({[2-(trifluoromethoxy)-phenyl]thio}methyl)tetra-hydrofuran-3,4-diol]
28% | 25% | Nc1ncnc2c1ncn2[C@@H]1O[C@H](CSc2ccccc2F)[C@@H](O)[C@H]1O [2(G)(117), (2R, 3R, 4S, 5S)-2-(6-amino-9H-purin-9-yl)-5-{[(2-fluorophenyl)thio)-methyl}tetrahydrofuran-3,4-diol]
2.5% | 2.5% | COc1ccc2[nH]c(SC[C@H]3O[C@@H](n4cnc5c(N)ncnc54)[C@H](O)[C@@H]3O)nc2c1 [2(G)(118), (2R, 3R, 4S, 5S)-2-(6-amino-9H-purin-9-yl)-5-{[(5-methoxy-1H-benzimidazol-2-yl)thio]methyl}tetrahydrofuran-3,4-diol]
26% | 12% | Nc1ncnc2c1ncn2[C@@H]1O[C@H](CSc2nc3ccccc3[nH]2)[C@@H](O)[C@H]1O [2(G)(119), (2R, 3R, 4S, 5S)-2-(6-amino-9H-purin-9-yl)-5-[(1H-benzimidazol-2-ylthio)methyl)tetrahydro-furan-3,4-diol]
3% | 1% | Cn1ccnc1SC[C@H]1O[C@@H](n2cnc3c(N)ncnc32)[C@H](O)[C@@H]1O [2(G)(120), (2R, 3R, 4S, 5S)-2-(6-amino-9H-purin-9-yl)-5-{[(1-methyl-1H-imidazol-2-yl)thio)methyl}tetra-hydrofuran-3,4-diol]
54.5% | 64.5% | CCCCCCCCCSC[C@H]1O[C@@H](n2cnc3c(N)ncnc32)[C@H](O)[C@@H]1O [2(G)(121), (2R, 3R, 4S, 5S)-2-(6-amino-9H-purin-9-yl)-5-[(nonylthio)methyl]tetra-hydrofuran-3,4-diol]
37% | 30.5% | Nc1ncnc2c1ncn2[C@@H]1O[C@H](CSc2nc3ccccc3o2)[C@@H](O)[C@H]1O [2(G)(122), (2R, 3R, 4S, 5S)-2-(6-amino-9H-purin-9-yl)-5-[(1,3-benzoxazol-2-ylthio)-methyl]tetrahydrofuran-3,4-diol]
22% | 23% | Nc1ncnc2c1ncn2[C@@H]1O[C@H](CSC[C@@H]2NC(=O)NC2=O)[C@@H](O)[C@H]1O [2(G)(123), (5R)-5-[({[(2S, 3S, 4R, 5R)-5-(6-amino-9H-purin-9-yl)-3,4-dihydroxytetra-hydrofuran-2-yl)methyl}thio)methyl]imidazo-lidine-2,4-dione]
51% | 47% | Nc1ncnc2c1ncn2[C@@H]1O[C@H](CSCc2ccc(Cl)cc2)[C@@H](O)[C@H]1O [2(G)(124), (2R, 3R, 4S, 5S)-2-(6-amino-9H-purin-9-yl)-5-[{(4-chlorobenzyl)thio]-methyl}tetrahydrofuran-3,4-diol]
62.5% | 101% | CCCCCCCSC[C@H]1O[C@@H](n2cnc3c(N)ncnc32)[C@H](O)[C@@H]1O [2(G)(125), (2R, 3R, 4S, 5S)-2-(6-amino-9H-purin-9-yl)-5-[(heptylthio)methyl]-tetrahydrofuran-3,4-diol]
